Laboratory results reported in PMC7470102, “Synthesis, anticancer evaluation and molecular docking studies of new benzimidazole- 1,3,4-oxadiazole derivatives as human topoisomerase types I poison” (Journal of Enzyme Inhibition and Medicinal Chemistry, 2020).
Read-outs that look alike come from different tables or passages of the source.

Assays:
[1] = tested on: NIH3T3 (mouse embryo fibroblast cell line); experiment: MTT cytotoxicity assay, NIH3T3 healthy cells; assay type: cell-based; settings: read-out: IC50 against NIH3T3
Experimental: (§1) The anticancer activity of compounds 5a–5o were screened according to the MTT assays. The MTT assays were performed as previously described[32]^,[33]. Anticancer activity of final compounds was assessed against five different cancer cell lines A549 (lung carcinoma cell line), HeLa (cervical cell line), MCF-7 (human breast adenocarcinoma cell line), HepG2 (human liver carcinoma cell line) and C6 (rat glioma cell line) cell lines as well as NIH3T3 (mouse embryo fibroblast cell line). Doxorubicin and Hoechst 33342 were used as the reference drugs in the MTT assays. It is crucial that an anticancer agent affects the cancer cell line but having minimal or no side-effect on healthy cells. For this purpose, the cytotoxic effects of the active compounds on the NIH3T3 cell line were investigated (Table 2).

[2] = tested on: HepG2 (human liver carcinoma cell line); experiment: MTT cytotoxicity assay, HepG2; assay type: cell-based; settings: read-out: IC50 against HepG2
Experimental: as §1, with “assays.” for “assays. It is crucial that an anticancer agent affects the cancer cell line but having minimal or no side-effect on healthy cells. For this purpose, the cytotoxic effects of the active compounds on the NIH3T3 cell line were investigated (Table 2).”
(§2) The benzimidazole-1,3,4-oxadiazole derivatives (5a-5o) were tested their cytotoxic effects in vitro using five cancer cell line A549 (lung carcinoma cell line), HeLa (cervical cell line), MCF-7 (human breast adenocarcinoma cell line), HepG2 (human liver carcinoma cell line) and C6 (rat glioma cell line) cell lines as well as NIH3T3 (mouse embryo fibroblast cell line). Doxorubicin and Hoechst 33342 were used for this study as a reference drugs.

[3] = tested on: HeLa (cervical cell line); experiment: MTT cytotoxicity assay, HeLa; assay type: cell-based; settings: read-out: IC50 against HeLa
Experimental: as §1, with “assays.” for “assays. It is crucial that an anticancer agent affects the cancer cell line but having minimal or no side-effect on healthy cells. For this purpose, the cytotoxic effects of the active compounds on the NIH3T3 cell line were investigated (Table 2).”
as §2

[4] = tested on: A549 cells; experiment: DNA synthesis inhibition assay (BrdU), A549; assay type: cell-based; settings: 48 h
Experimental: (§3) The BrdU cell proliferation method was performed to analyse the effects of the active compounds on proliferation of cancer cells. Cancer cells were seeded into the 96-well plates at a density of 1 × 10^4 cells. Compounds were added into the each well at three different concentrations (IC50/2, IC50 and 2xIC50) and the plates were incubated for 24 h. At the end of the incubation period, BrdU solution was added and cells were reincubated for 2 h at 37 °C. Anti-BrdU-POD ([…]) was added and the mixture was incubated for 90 min. Microplates were washed with PBS for three times. After adding substrate solution, the mixture was incubated for 15 min. OD of the wells were determined at 492 nm. Proliferation of control cells was assessed as 100% and growth inhibition % of cells, treated with test compounds and […] were calculated.
(§4) According to the MTT assay, compound 5n for A549 cell line; compounds 5a, 5d, 5e, 5o for MCF-7 cell line; compound 5k for C6 cell line; compound 5a for HepG2 cell line; compounds 5b, 5l and 5n for HeLa cell line were selected for the DNA synthesis inhibition assay. A549, C6, MCF-7, HepG2 and HeLa cells were incubated with three different concentrations (IC50/2, IC50, and […]) of the compounds for 24 and 48 h time periods. […] Doxorubicin was used as positive control.

[5] = tested on: A549 (lung carcinoma cell line); experiment: MTT cytotoxicity assay, A549; assay type: cell-based; settings: read-out: IC50 against A549
Experimental: as §1, with “assays.” for “assays. It is crucial that an anticancer agent affects the cancer cell line but having minimal or no side-effect on healthy cells. For this purpose, the cytotoxic effects of the active compounds on the NIH3T3 cell line were investigated (Table 2).”
as §2

[6] = tested on: HeLa cells; experiment: DNA synthesis inhibition assay (BrdU), HeLa; assay type: cell-based; settings: 48 h, 5b 0.698, 5l 0.224, 5n 0.205, doxorubicin 14.280 µg/mL
Experimental: as §3, §4

[7] = tested on: MCF-7 (human breast adenocarcinoma cell line); experiment: MTT cytotoxicity assay, MCF-7; assay type: cell-based; settings: read-out: IC50 against MCF-7
Experimental: as §1, with “assays.” for “assays. It is crucial that an anticancer agent affects the cancer cell line but having minimal or no side-effect on healthy cells. For this purpose, the cytotoxic effects of the active compounds on the NIH3T3 cell line were investigated (Table 2).”
as §2

[8] = biological target: T1, Topoisomerase I (Homo sapiens, UniProt P11387); experiment: DNA topoisomerase I assay (relaxation of supercoiled plasmid DNA, agarose gel); assay type: biochemical; settings: agarose gel electrophoresis, camptothecin positive control, Figure 12
T1 construct: purchased TopoGen TG1018-2
T1 sequence (P11387 1-765): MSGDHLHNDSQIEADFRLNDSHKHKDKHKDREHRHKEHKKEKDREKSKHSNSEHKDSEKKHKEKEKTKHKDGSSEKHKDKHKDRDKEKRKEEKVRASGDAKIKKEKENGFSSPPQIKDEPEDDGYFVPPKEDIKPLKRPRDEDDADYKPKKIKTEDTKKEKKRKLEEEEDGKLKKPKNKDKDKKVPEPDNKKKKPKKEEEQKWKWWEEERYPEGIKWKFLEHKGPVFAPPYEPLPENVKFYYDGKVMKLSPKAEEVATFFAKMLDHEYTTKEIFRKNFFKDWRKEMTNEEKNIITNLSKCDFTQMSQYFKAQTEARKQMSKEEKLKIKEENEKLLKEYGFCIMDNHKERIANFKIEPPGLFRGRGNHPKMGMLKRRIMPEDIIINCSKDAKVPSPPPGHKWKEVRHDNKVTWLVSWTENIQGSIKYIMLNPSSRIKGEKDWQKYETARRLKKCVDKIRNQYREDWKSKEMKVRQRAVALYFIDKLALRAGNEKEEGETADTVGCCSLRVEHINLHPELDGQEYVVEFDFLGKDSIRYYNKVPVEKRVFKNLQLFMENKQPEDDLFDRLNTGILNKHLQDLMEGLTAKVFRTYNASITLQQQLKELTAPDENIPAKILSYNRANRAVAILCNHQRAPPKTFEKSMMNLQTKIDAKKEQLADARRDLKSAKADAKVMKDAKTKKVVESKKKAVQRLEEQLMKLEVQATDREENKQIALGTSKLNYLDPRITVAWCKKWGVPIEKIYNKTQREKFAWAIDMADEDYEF
Experimental: The topoisomerase I inhibition activities of final compounds were measured as relaxation of supercoiled plasmid DNA using agarose gel electrophoresis and camptothecin was used as a positive control. The assay was carried out in a final volume of 20 µl reaction volume containing 2 µl of 10xTGS Buffer, 6 µl water, 2 µl supercoiled plasmid DNA, 2 µl test compound, 2 µl of Top1, 2 ul 10% SDS, 2 µl proteinase K, 2 µl DNA loading dye. After incubation of reaction mixtures at 37 °C for 30 min, electrophoresis was done on a 1% agarose gel at a potential 50 V for 75 min using 1xTAE buffer.
To determine whether the DNA intercalation properties of compounds 5a, 5b, 5d, 5e, 5k, 5l, 5n and 5o might result in Topo I inhibition, agarose gel electrophores is assay was performed to evaluate the Topo I inhibitory activity of them via agarose-gel electrophoresis and CPT was used as the positive control. The TopoGEN Topoisomerase I Drug Screening Kit were optimised and implemented to accomplish this goal.
In a previous studies, it was said that the compounds poisoning topoisomerase caused the formation of nick bands in such gel appearances, while the formation of Supercoiled bands was said to be caused by catalytic inhibitors that bound to either DNA or enzyme[40]^,[41].

[9] = tested on: HeLa cell line; experiment: Flow cytometric analysis (Annexin V/PI), HeLa; assay type: cell-based
Experimental: (§5) Death pathway of the carcinogenic cell lines was detected by Annexin V-FITC Apoptosis Detection Kit (BD, Pharmingen) as reported previously described. […] FCS Express software was used to display the percent of normal and apoptotic cells at different stages. […] The experiments were carried out in triplicates.
(§6) Annexin V/PI staining on tested cancer cells treated with the active compounds was performed to investigate induction of apoptosis. […] According to the MTT assay, compound 5n for A549 cell line; compounds 5a, 5d, 5e, 5o for MCF-7 cell line; compound 5k for C6 cell line; compound 5a for HepG2 cell line; compounds 5b, 5l and 5n for HeLa cell line were selected for the flow cytometric analysis. Furthermore, flow cytometry studies were performed for reference drug doxorubicin. Flow cytometric analysis diagrams of tested compounds and doxorubicin at IC50/2, IC50, and 2xIC50 concentrations on cancer cells were presented in Figures 7–11.

[10] = tested on: C6 (rat glioma cell line); experiment: MTT cytotoxicity assay, C6; assay type: cell-based; settings: read-out: IC50 against C6
Experimental: as §1, with “assays.” for “assays. It is crucial that an anticancer agent affects the cancer cell line but having minimal or no side-effect on healthy cells. For this purpose, the cytotoxic effects of the active compounds on the NIH3T3 cell line were investigated (Table 2).”
as §2

[11] = tested on: A549 cell line; experiment: Flow cytometric analysis (Annexin V/PI), A549; assay type: cell-based; settings: at IC50 concentrations
Experimental: as §5, §6

[12] = tested on: MCF-7 cell line; experiment: Flow cytometric analysis (Annexin V/PI), MCF-7; assay type: cell-based, human; settings: MCF-7 cells
Experimental: as §5, §6

[13] = tested on: C6 cell line; experiment: Flow cytometric analysis (Annexin V/PI), C6; assay type: cell-based, rat; settings: at IC50 concentrations
Experimental: as §5, §6

[14] = tested on: HepG2 cell line; experiment: Flow cytometric analysis (Annexin V/PI), HepG2; assay type: cell-based, human; settings: at IC50 concentrations, 24 h incubation
Experimental: as §5, §6

[15] = tested on: MCF7 cells; experiment: DNA synthesis inhibition assay (BrdU), MCF7; assay type: cell-based, human; settings: 48 h, 5e at 7.318 µg/mL, doxorubicin at 10.525 µg/mL
Experimental: as §3, §4

[16] = tested on: HepG2 cells; experiment: DNA synthesis inhibition assay (BrdU), HepG2; assay type: cell-based, human; settings: 5a at 5.695 µg/mL, doxorubicin at 16.482 µg/mL
Experimental: as §3, §4

[17] = 5n at 5.39 µg/mL, doxorubicin at 6.21 µg/mL
[18] = 5n at 7.39 µg/mL, doxorubicin at 12.42 µg/mL
[19] = 5n at 14.77 µg/mL, doxorubicin at 24.84 µg/mL
[20] = Homo sapiens, MCF7, MCF-7 cell line

| Topo I inhibition activity [8] | SMILES | % DNA synthesis inhibition [4, 17] | % DNA synthesis inhibition [4, 18] | % DNA synthesis inhibition [4, 19] | % DNA synthesis inhibition [6] | percentage of apoptotic cells [9] | percentage of apoptotic cells [11] | IC50 ([1]; Mus musculus) | IC50 ([2]; Homo sapiens) | IC50 ([3]; Homo sapiens) | IC50 ([5]; Homo sapiens, A549, MTT assay) | IC50 [7, 20] | IC50 ([10]; Rattus norvegicus) | further results |
| --- | --- | --- | --- | --- | --- | --- | --- | --- | --- | --- | --- | --- | --- | --- |
| potent topo I inhibition activity | CCOc1ccc(-c2nc3ccc(-c4nnc(SCC(=O)N5CCN(c6ccccn6)CC5)o4)cc3[nH]2)cc1 [5n] | 66.00% | 68.25% | 78.17% | 57.65% | 15.2% | 13% |  |  |  |  |  |  | IC50 [1]: 189 ± 8.73 µM; IC50 [2]: ≥ 100 µM; IC50 [3]: 0.205 ± 0.01 µM; IC50 ([5]; MTT assay): 7.39 ± 0.325 µM; IC50 ([7]; MCF-7 cell line): ≥ 100 µM; IC50 [10]: ≥ 100 µM |
|  | COc1cccc2c1C(=O)c1c(O)c3c(c(O)c1C2=O)C[C@@](O)(C(=O)CO)C[C@@H]3O[C@H]1C[C@H](N)[C@H](O)[C@H](C)O1 [Dox., doxorubicin, reference compound] | 62.78% | 73.43% | 81.22% |  |  | 19.2% | 1111 ± 8.25 µM | 16.5 ± 0.804 µM | 14.3 ± 0.704 µM | 12.4 ± 0.521 µM | 10.5 ± 0.472 µM | 28.7 ± 1.23 µM | percentage of apoptosis (early + late apoptotic cells) [12]: 12.7%; percentage of apoptotic cells [13]: 13.7%; percentage of apoptotic cells [14]: 9.4%; inhibition at 14.28 µg/mL ([6]; Homo sapiens): 66.5%; % DNA synthesis inhibition [15]: 84.60%; % DNA synthesis inhibition ([16]; 24 h): 42.80%; % DNA synthesis inhibition ([16]; 48 h): 74.22% |
| potent topo I inhibition activity | CCOc1ccc(-c2nc3ccc(-c4nnc(SCC(=O)N5CCN(CC)CC5)o4)cc3[nH]2)cc1 [5l, 2-((5-(2-(4-Ethoxyphenyl)-1H-benzo[d]imidazol-6-yl)-1,3,4-oxadiazol-2-yl)thio)-1–(4-ethyl-piperazin-1-yl)-ethane-1-on] |  |  |  | 56.01% | 8.6% |  | 113 ± 5.47 µM | ≥ 100 µM | 0.224 ± 0.011 µM | 31 ± 1.53 µM | ≥ 100 µM | ≥ 100 µM |  |
